Data set [1] deals with A549 cell line. To be noted: read-out: IC50 value for A549 cell line; cited from earlier work.
The subject of data set [2] is normal cell lines like MRC5, HEK293T, or HaCat. To be noted: cited from earlier work.
Data set [3] relates to apo-Tf. To be noted: cited from earlier work.
Data set [4] concerns A549 or HeLa lines. To be noted: cited from earlier work.
Data set [5] relates to MCF7 (human breast adenocarcinoma). The arrangement: method as in PMID 31237306. To be noted: cited from earlier work.
In data set [6] the test system is A549 (human lung carcinoma). The arrangement: method as in PMID 31237306. To be noted: cited from earlier work.
The subject of data set [7] is HeLa (human cervix carcinoma). More on the design: method as in PMID 31237306. To be noted: cited from earlier work.
Data set [8] has as its system NHDF cells. More on the design: method as in PMID 31237306. To be noted: cited from earlier work.
Data set [9] relates to LoVo (human colorectal adenocarcinoma). The arrangement: method as in earlier work. To be noted: cited from earlier work.
Data set [10] relates to HeLa (human cervix carcinoma). As to the kind of experiment: Cytotoxicity on HeLa cells, quantitative suspension test according to EN 14476. Format: cell-based. To be noted: observed 4 days, aqua media. The protocol: (§1) Normal human dermal fibroblasts (NHDF) (PromoCell, C-12302) were used as normal cells and LoVo (human colorectal adenocarcinoma, ATCC® CCL-229™), A549 (human lung carcinoma, ATCC, No. CCL-185 TM), MCF-7 (human breast adenocarcinoma, ATCC, No. HTB-22^TM) and HeLa (human cervix carcinoma, ATCC, No. CCL-2 TM) were used as cancer cells. They were cultured in DMEM, DMEM–F12 or EMEM (Lonza, CA, USA). Media were supplemented with 10% FBS (Biological Industries, Kibbutz Beit-Haemek, Israel), 2 mM L-glutamine (Biological Industries, Israel), 100 U/mL of penicillin and 100 µg/mL of streptomycin (Sigma, Neustadt an der Weinstrasse, Germany).
(§2) The 100 μL of suspension of NHDF, A549, HeLa, LoVo, and MCF7 cells at a density of 4 × 10^4 cells mL^−1 were incubated in a 96-well polystyrene plate (NUNC, Denmark) for 24 h. Product test solutions were prepared in DMEM, DMEM–F12, or EMEM supplemented with additional 2% FBS and 2 mM L-glutamine. Solutions of the reagents at concentrations from 460 (for 1), 454 (2), […] (3), 1242 (Cu(NO3)2), 1732 (PTA=O), and 1440 µM (dmphen) to 4.60 × 10^−6, 4.54 × 10^−6, 4.69 × 10^−6, 1.24 × 10^−5, 1.73 × 10^−5, and 1.44 × 10^−5 µM, respectively, were prepared and transferred (100 μL) into cell culture units (wells of microtiter plates) containing monolayer of cells. Eight units were inoculated with each dilution. Plates were incubated in 37 °C, 5% CO2 and observed daily for 4 days for the development of cytotoxic effect, using an inverted microscope (Olympus Corp., Hamburg, Germany, Axio Observer, Carl Zeiss MicroImaging GmbH). Then the wells were washed in phosphate buffered saline (PBS) and stained using DAPI (4′,6-diamidino-2-phenylindole) and propidium iodide (Merck, Darmstadt, Germany). The study used the fact that DAPI is able to be combined with cellular DNA, permeate through the membrane of cell, rapidly enter the nucleus of living cells and bind with DNA to form a DAPI-DNA complex. […] In cell culture these are cells that are apoptotic or damaged by any physical or chemical agent. Therefore, if these two fluorochrome are given at the same time, DAPI will get to healthy cells faster, while propidium iodide will stain dead or dying cells. The calculation of the ratio of cells counted on a specific area, allows to determine the potency of a substance in inhibiting a specific biological function (IC50).

For data set [11], the system named is LoVo (human colorectal adenocarcinoma). As to the kind of experiment: Cytotoxicity on LoVo cells, quantitative suspension test according to EN 14476. It is filed as cell-based. To be noted: observed 4 days, aqua media. As for the experimental part: as §1, §2
Data set [12] relates to A549 (human lung carcinoma). As to the kind of experiment: Cytotoxicity on A549 cells, quantitative suspension test according to EN 14476. Format: cell-based. To be noted: observed 4 days, aqua media. As for the experimental part: as §1, §2
Data set [13] relates to MCF7 (human breast adenocarcinoma). As to the kind of experiment: Cytotoxicity on MCF7 cells, quantitative suspension test according to EN 14476. Format: cell-based. To be noted: observed 4 days, aqua media. As for the experimental part: as §1, §2
Data set [14] has as its system NHDF cells. As to the kind of experiment: Cytotoxicity on normal human dermal fibroblasts, quantitative suspension test according to EN 14476 (DAPI/propidium iodide). To be noted: observed 4 days, aqua media. It is filed as cell-based. As for the experimental part:
as §1, §2

The mark [15] stands for this setting: read-out: IC50 value, cytotoxic effect on A549 or HeLa lines, A549 or HeLa.

Like-named read-outs stand apart in the source and are kept apart here.

One may read the IC50 as the point on the concentration scale where inhibition reaches its midpoint. For the compound “[Cu(iodide)(dmphen)(P(p-OCH3-Ph)2CH2-SarGly)]”, the IC50 in [1] was above 100 µM.

With `COc1ccc(P(CO)c2ccc(OC)cc2)cc1.Cc1ccc2ccc3ccc(C)nc3c2n1.[Cu+].[I-]` [[Cu(iodide)(dmphen)(P(p-OCH3-Ph)2CH2OH)]], the IC50 in data set [1] is 62 µM. The “concentration toxic for normal cell lines” value in data set [2] was 32 to 43 µM.

Regarding `[Cr+3].c1cnc2c(c1)ccc1cccnc12.c1cnc2c(c1)ccc1cccnc12.c1cnc2c(c1)ccc1cccnc12` [chromium(III)-phen], the “association constant, apo-Tf system” value in data set [3] was 150000 M⁻¹.

With [Cu(sal-5-met-L-glu)(H2O)]∙H2O, the IC50 in [4] (setting [15]) is above 100 µM.

Take `N.N.[Cl][Pt][Cl]` [Cisplatin]: the IC50 was 33.3 ± 4.2 µM in data set [5]; 33.3 ± 4.2 µM in data set [6]; 16.6 ± 3.1 µM in data set [7]; 16.6 ± 2.1 µM in data set [8]; 9.12 ± 0.005 µM in data set [9].

Regarding [Cu2(sal-D,L-glu)2(imidazole)2], the IC50 in data set [4] was above 100 µM.

With `Cc1ccc2ccc3ccc(C)nc3c2n1` [Dmphen, 2,9-dimethyl-1,10-phenanthroline], the IC50 in [10] (Homo sapiens, 96 h) came to 720 ± 108 µM; in [11] (Homo sapiens, 96 h) it was 360 ± 54 µM.

Take “[Cu2(sal-D,L-glu)2(isoquinoline)2]∙2EtOH”: the IC50 in [4] (setting [15]) is above 100 µM.

In the case of `O=[N+]([O-])[O-].O=[N+]([O-])[O-].[Cu+2]` [Cu(NO3)2, reference compound], the half-inhibitory concentration (IC50) was determined as 155 ± 23 µM in data set [12]; 155 ± 23 µM in data set [13]; 310 ± 47 µM in [14]; 19.1 ± 2.9 µM in [10]; 38.8 ± 5.8 µM in [11].

Consider [Cu(EtOH)2(imidazole)4], for which the IC50 in [4] was above 100 µM.

As to `CS(C)=O.[Cl-].[Cl-].[Cl-].[Cl-].[Ru+3].c1c[nH+]c[nH]1.c1c[nH]cn1` [NAMI-A, Imidazolium-trans-tetrachloro(dimethylsulfoxide)imidazoleruthenium(III)], the “association constant with apo-Tf” value in data set [3] is 12800 M⁻¹.

Source of the values: PMC7037393, “Synthesis, Structural, and Cytotoxic Properties of New Water-Soluble Copper(II) Complexes Based on 2,9-Dimethyl-1,10-Phenanthroline and Their One Derivative Containing 1,3,5-Triaza-7-Phosphaadamantane-7-Oxide” (Molecules, 2020).
